Measurements taken from ChEMBL document CHEMBL4043169, “Discovery of potent and selective CDK8 inhibitors through FBDD approach” (Bioorg Med Chem Lett, 2017).

What was measured:
[1] = molecular target: CDK8/Cyclin C (Homo sapiens, UniProt P49336); assay: Inhibition of recombinant full length His-tagged human CDK8/Cyclin C expressed in baculovirus expression system using Ulight-GS peptide as substrate after 30 mins in presence of ATP by TR-FRET assay
[2] = system: AGS; assay: Antiproliferative activity against human AGS cells after 72 hrs by MTT assay
[3] = molecular target: Platelet-derived growth factor receptor alpha (Homo sapiens) (UniProt P16234); assay: Inhibition of PDGFRalpha (unknown origin) at 1 uM relative to control
Sequence of Platelet-derived growth factor receptor alpha (Homo sapiens) (P16234 whole entry): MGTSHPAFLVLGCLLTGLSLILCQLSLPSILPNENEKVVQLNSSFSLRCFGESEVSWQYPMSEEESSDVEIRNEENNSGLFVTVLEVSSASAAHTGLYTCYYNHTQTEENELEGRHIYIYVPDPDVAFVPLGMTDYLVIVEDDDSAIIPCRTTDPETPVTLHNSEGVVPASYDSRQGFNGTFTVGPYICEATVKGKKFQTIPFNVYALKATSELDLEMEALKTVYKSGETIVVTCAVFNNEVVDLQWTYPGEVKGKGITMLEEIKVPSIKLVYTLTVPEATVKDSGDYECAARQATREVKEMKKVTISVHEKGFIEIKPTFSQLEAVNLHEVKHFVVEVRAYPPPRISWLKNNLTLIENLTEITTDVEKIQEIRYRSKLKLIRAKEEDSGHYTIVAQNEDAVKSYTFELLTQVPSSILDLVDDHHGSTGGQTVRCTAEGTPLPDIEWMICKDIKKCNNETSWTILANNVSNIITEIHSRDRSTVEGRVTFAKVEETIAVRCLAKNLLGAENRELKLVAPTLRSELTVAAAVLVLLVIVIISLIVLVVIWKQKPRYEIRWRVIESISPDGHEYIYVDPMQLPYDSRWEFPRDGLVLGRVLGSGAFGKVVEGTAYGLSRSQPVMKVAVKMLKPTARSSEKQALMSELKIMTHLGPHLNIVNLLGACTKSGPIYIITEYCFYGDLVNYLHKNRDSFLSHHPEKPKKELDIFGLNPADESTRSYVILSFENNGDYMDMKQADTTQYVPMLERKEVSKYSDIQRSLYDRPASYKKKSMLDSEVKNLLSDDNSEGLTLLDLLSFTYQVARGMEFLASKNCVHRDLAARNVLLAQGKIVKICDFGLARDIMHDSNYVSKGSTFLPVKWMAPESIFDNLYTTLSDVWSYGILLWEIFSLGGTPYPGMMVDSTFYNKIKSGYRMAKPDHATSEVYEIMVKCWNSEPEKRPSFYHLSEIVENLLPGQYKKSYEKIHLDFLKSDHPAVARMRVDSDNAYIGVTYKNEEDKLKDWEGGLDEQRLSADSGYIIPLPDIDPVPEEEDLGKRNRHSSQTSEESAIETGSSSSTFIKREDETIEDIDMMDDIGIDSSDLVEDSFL

[4] = molecular target: Vascular endothelial growth factor receptor 2 (Homo sapiens) (UniProt P35968); assay: Inhibition of KDR (unknown origin) at 1 uM relative to control
Sequence of Vascular endothelial growth factor receptor 2 (Homo sapiens) (P35968 whole entry): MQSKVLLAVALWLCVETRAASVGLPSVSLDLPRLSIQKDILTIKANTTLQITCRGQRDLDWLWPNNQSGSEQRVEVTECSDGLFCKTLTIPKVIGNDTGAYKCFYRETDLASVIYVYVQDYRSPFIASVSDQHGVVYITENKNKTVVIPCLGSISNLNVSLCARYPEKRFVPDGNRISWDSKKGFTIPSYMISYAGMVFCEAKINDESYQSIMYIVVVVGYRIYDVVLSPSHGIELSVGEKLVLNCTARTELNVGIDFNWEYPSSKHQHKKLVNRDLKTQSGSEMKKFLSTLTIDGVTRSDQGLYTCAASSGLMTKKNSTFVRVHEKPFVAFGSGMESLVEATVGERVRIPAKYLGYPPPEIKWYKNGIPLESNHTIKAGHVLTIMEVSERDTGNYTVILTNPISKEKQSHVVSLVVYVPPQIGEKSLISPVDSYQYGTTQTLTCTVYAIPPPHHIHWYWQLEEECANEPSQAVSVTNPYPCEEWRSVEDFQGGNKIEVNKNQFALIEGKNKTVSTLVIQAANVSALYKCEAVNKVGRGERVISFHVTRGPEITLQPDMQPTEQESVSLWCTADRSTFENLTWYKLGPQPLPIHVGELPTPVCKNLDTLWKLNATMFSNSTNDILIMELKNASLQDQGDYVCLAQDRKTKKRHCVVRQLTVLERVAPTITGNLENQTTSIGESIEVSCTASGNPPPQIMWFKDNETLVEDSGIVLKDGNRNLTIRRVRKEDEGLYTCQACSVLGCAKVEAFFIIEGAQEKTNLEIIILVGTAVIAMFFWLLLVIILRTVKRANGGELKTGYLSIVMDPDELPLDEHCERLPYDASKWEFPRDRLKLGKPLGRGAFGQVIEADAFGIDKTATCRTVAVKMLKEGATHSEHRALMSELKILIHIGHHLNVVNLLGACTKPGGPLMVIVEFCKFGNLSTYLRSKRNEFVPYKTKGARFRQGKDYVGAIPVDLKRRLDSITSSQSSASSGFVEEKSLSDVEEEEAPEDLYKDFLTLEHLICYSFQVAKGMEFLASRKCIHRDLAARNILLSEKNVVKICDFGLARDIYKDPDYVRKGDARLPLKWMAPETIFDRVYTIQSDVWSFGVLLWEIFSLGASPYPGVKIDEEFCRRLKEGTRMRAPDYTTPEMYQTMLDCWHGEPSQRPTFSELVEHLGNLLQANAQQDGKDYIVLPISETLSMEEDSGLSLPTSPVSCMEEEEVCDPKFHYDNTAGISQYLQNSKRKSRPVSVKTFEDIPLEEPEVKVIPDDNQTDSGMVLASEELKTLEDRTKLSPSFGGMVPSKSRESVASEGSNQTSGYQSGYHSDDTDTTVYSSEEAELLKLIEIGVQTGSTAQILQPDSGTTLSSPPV

[5] = molecular target: Fibroblast growth factor receptor 1 (Homo sapiens) (UniProt P11362); assay: Inhibition of FGFR1 (unknown origin) at 1 uM relative to control
[6] = molecular target: Tyrosine-protein kinase JAK2 (Homo sapiens) (UniProt O60674); assay: Inhibition of JAK2 (unknown origin) at 1 uM relative to control
[7] = species on record: Homo sapiens; assay: Inhibition of P70S6K (unknown origin) at 1 uM relative to control
[8] = molecular target: Calcium/calmodulin-dependent protein kinase type IV (Homo sapiens) (UniProt Q16566); assay: Inhibition of CAMK4 (unknown origin) at 1 uM relative to control
[9] = molecular target: Angiopoietin-1 receptor (Homo sapiens) (UniProt Q02763); assay: Inhibition of TIE2 (unknown origin) at 1 uM relative to control
[10] = molecular target: Mast/stem cell growth factor receptor Kit (Homo sapiens) (UniProt P10721); assay: Inhibition of cKIT (unknown origin) at 1 uM relative to control
[11] = molecular target: Mitogen-activated protein kinase 14 (Homo sapiens) (UniProt Q16539); assay: Inhibition of p38alpha (unknown origin) at 1 uM relative to control
[12] = molecular target: Serine/threonine-protein kinase PAK 4 (Homo sapiens) (UniProt O96013); assay: Inhibition of PAK4 (unknown origin) at 1 uM relative to control
[13] = molecular target: Serine/threonine-protein kinase Sgk1 (Homo sapiens) (UniProt O00141); assay: Inhibition of SGK (unknown origin) at 1 uM relative to control
[14] = molecular target: Tyrosine-protein kinase ABL1 (Homo sapiens) (UniProt P00519); assay: Inhibition of ABL (unknown origin) at 1 uM relative to control
[15] = molecular target: Inhibitor of nuclear factor kappa-B kinase subunit beta (Homo sapiens) (UniProt O14920); assay: Inhibition of IKKbeta (unknown origin) at 1 uM relative to control
[16] = molecular target: Proto-oncogene tyrosine-protein kinase Src (Homo sapiens) (UniProt P12931); assay: Inhibition of SRC (unknown origin) at 1 uM relative to control
Sequence of Proto-oncogene tyrosine-protein kinase Src (Homo sapiens) (P12931 2-536 limits assumed): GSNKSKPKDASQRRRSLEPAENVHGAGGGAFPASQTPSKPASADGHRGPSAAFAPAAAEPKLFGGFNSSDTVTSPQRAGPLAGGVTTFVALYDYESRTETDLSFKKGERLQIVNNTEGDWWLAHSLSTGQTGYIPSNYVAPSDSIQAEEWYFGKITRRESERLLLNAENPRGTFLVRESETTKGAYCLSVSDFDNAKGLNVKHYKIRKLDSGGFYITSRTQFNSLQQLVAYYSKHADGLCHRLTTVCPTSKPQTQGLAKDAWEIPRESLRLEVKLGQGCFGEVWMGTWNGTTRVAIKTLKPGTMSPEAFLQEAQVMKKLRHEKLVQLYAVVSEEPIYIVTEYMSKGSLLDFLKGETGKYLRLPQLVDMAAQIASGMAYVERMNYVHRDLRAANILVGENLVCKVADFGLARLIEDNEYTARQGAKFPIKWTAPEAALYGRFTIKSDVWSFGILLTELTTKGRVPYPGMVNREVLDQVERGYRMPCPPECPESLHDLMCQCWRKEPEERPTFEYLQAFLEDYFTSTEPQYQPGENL

[17] = molecular target: Tyrosine-protein kinase Lck (Homo sapiens) (UniProt P06239); assay: Inhibition of LCK (unknown origin) at 1 uM relative to control
[18] = molecular target: Ephrin type-A receptor 1 (Homo sapiens) (UniProt P21709); assay: Inhibition of EPHA1 (unknown origin) at 1 uM relative to control
[19] = molecular target: ALK tyrosine kinase receptor (Homo sapiens) (UniProt Q9UM73); assay: Inhibition of ALK (unknown origin) at 1 uM relative to control
[20] = molecular target: Epidermal growth factor receptor (Homo sapiens) (UniProt P00533); assay: Inhibition of EGFR (unknown origin) at 1 uM relative to control
[21] = molecular target: RAC-alpha serine/threonine-protein kinase (Homo sapiens) (UniProt P31749); assay: Inhibition of AKT1 (unknown origin) at 1 uM relative to control
[22] = molecular target: Insulin-like growth factor 1 receptor (Homo sapiens) (UniProt P08069); assay: Inhibition of IGF1R (unknown origin) at 1 uM relative to control
[23] = molecular target: Ribosomal protein S6 kinase alpha-1 (Homo sapiens) (UniProt Q15418); assay: Inhibition of RSK1 (unknown origin) at 1 uM relative to control
[24] = molecular target: Ribosomal protein S6 kinase alpha-2 (Homo sapiens) (UniProt Q15349); assay: Inhibition of RSK2 (unknown origin) at 1 uM relative to control
[25] = molecular target: Ribosomal protein S6 kinase alpha-5 (Homo sapiens) (UniProt O75582); assay: Inhibition of MSK1 (unknown origin) at 1 uM relative to control
[26] = molecular target: Ribosomal protein S6 kinase alpha-4 (Homo sapiens) (UniProt O75676); assay: Inhibition of MSK2 (unknown origin) at 1 uM relative to control
[27] = molecular target: Serine/threonine-protein kinase pim-1 (Homo sapiens) (UniProt P11309); assay: Inhibition of PIM1 (unknown origin) at 1 uM relative to control
[28] = molecular target: Protein kinase C alpha type (Homo sapiens) (UniProt P17252); assay: Inhibition of PKCalpha (unknown origin) at 1 uM relative to control
[29] = molecular target: Rho-associated protein kinase 1 (Homo sapiens) (UniProt Q13464); assay: Inhibition of ROCK1 (unknown origin) at 1 uM relative to control
[30] = molecular target: Glycogen synthase kinase-3 beta (Homo sapiens) (UniProt P49841); assay: Inhibition of Gsk3beta (unknown origin) at 1 uM relative to control
[31] = molecular target: Mitogen-activated protein kinase 9 (Homo sapiens) (UniProt P45984); assay: Inhibition of JNK2 (unknown origin) at 1 uM relative to control
[32] = molecular target: Serine/threonine-protein kinase MARK1 (Homo sapiens) (UniProt Q9P0L2); assay: Inhibition of MARK1 (unknown origin) at 1 uM relative to control
[33] = molecular target: Serine/threonine-protein kinase 4 (Homo sapiens) (UniProt Q13043); assay: Inhibition of MST1 (unknown origin) at 1 uM relative to control
[34] = molecular target: Casein kinase I isoform delta (Homo sapiens) (UniProt P48730); assay: Inhibition of CK1delta (unknown origin) at 1 uM relative to control
[35] = molecular target: Aurora kinase B (Homo sapiens) (UniProt Q96GD4); assay: Inhibition of AurB (unknown origin) at 1 uM relative to control
[36] = molecular target: Aurora kinase A (Homo sapiens) (UniProt O14965); assay: Inhibition of AurA (unknown origin) at 1 uM relative to control
[37] = molecular target: 5'-AMP-activated protein kinase catalytic subunit alpha-1 (Homo sapiens) (UniProt Q13131); assay: Inhibition of AMPKa1 (unknown origin) at 1 uM relative to control
[38] = molecular target: Receptor-type tyrosine-protein kinase FLT3 (Homo sapiens) (UniProt P36888); assay: Inhibition of FLT3 (unknown origin) at 1 uM relative to control
[39] = molecular target: Hepatocyte growth factor receptor (Homo sapiens) (UniProt P08581); assay: Inhibition of cMET (unknown origin) at 1 uM relative to control
[40] = molecular target: Interleukin-1 receptor-associated kinase 1 (Homo sapiens) (UniProt P51617); assay: Inhibition of IRAK1 (unknown origin) at 1 uM relative to control
[41] = molecular target: Mitogen-activated protein kinase 3 (Homo sapiens) (UniProt P27361); assay: Inhibition of ERK1 (unknown origin) at 1 uM relative to control
[42] = molecular target: Receptor tyrosine-protein kinase erbB-2 (Homo sapiens) (UniProt P04626); assay: Inhibition of HER2 (unknown origin) at 1 uM relative to control
Sequence of Receptor tyrosine-protein kinase erbB-2 (Homo sapiens) (P04626 whole entry): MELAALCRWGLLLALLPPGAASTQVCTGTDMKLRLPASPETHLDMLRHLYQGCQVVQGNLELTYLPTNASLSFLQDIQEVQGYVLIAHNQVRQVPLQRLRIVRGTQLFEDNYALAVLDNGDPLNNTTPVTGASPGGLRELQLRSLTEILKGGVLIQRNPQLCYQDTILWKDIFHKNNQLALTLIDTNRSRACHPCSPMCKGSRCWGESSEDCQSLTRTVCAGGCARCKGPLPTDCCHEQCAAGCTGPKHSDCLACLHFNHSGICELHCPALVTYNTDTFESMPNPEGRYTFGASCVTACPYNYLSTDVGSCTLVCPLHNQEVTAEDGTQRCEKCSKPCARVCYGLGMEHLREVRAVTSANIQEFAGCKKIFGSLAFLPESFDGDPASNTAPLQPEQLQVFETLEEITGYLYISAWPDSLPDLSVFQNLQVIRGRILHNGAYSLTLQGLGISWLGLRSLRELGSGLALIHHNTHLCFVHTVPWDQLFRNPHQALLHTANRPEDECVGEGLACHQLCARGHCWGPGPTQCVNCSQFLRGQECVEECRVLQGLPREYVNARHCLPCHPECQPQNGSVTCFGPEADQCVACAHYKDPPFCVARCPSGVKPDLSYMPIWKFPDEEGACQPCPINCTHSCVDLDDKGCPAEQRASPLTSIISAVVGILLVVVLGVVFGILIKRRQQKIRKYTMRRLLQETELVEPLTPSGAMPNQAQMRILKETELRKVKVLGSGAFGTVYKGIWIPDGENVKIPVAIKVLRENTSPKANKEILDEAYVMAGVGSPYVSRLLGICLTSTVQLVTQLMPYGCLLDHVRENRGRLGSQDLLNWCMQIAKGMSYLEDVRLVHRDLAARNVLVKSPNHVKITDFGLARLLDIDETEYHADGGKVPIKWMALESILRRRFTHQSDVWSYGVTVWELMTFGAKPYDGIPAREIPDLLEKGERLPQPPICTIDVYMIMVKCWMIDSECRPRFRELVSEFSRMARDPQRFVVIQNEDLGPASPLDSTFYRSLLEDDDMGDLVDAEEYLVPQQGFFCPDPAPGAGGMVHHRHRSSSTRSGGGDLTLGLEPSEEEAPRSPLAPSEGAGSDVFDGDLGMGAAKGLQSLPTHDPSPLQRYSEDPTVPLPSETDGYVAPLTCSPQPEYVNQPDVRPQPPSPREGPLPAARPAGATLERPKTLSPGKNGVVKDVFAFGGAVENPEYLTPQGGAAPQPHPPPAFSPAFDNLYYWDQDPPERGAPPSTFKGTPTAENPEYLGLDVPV

[43] = molecular target: Cyclin-dependent kinase 2 (Homo sapiens) (UniProt P24941); assay: Inhibition of CDK2 (unknown origin) at 1 uM relative to control
[44] = molecular target: Cyclin-dependent kinase 6 (Homo sapiens) (UniProt Q00534); assay: Inhibition of CDK6 (unknown origin) at 1 uM relative to control
[45] = molecular target: 3-phosphoinositide-dependent protein kinase 1 (Homo sapiens) (UniProt O15530); assay: Inhibition of PDK1 (unknown origin) at 1 uM relative to control
[46] = Clearance in mouse at 5 mg/kg, iv; assay type: ADME, organism-based; conditions: in vivo
[47] = Cmax in mouse at 5 mg/kg, iv; assay type: ADME, organism-based; design: dose 5 mg/kg, route intravenous; conditions: in vivo
[48] = Cmax in mouse at 25 mg/kg, po; assay type: ADME, organism-based; design: dose 25 mg/kg, route oral; conditions: in vivo
[49] = Tmax in mouse at 25 mg/kg, po; assay type: ADME, organism-based; conditions: in vivo
[50] = Half life in mouse at 5 mg/kg, iv; assay type: ADME, organism-based; conditions: in vivo
[51] = Half life in mouse at 25 mg/kg, po; assay type: ADME, organism-based; conditions: in vivo
[52] = Volume of distribution at steady state in mouse at 5 mg/kg, iv; assay type: ADME, organism-based; conditions: in vivo, read-out: Vdss
[53] = Oral bioavailability in mouse at 25 mg/kg; assay type: ADME, organism-based; conditions: in vivo

Sequence of CDK8/Cyclin C (P49336 whole entry): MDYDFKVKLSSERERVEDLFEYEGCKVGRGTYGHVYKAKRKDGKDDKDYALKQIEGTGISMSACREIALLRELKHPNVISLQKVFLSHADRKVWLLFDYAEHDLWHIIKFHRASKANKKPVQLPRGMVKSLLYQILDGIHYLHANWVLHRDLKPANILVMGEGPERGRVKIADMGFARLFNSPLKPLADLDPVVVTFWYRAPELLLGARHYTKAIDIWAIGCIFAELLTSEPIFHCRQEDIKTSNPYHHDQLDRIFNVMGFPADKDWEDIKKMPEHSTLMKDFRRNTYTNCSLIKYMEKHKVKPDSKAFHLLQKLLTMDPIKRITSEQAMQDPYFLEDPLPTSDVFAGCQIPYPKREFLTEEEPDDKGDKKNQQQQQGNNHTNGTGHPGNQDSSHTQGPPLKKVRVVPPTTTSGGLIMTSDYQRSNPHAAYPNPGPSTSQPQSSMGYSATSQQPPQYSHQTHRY
Sequence of CDK8/Cyclin C (P24863 whole entry, further chain): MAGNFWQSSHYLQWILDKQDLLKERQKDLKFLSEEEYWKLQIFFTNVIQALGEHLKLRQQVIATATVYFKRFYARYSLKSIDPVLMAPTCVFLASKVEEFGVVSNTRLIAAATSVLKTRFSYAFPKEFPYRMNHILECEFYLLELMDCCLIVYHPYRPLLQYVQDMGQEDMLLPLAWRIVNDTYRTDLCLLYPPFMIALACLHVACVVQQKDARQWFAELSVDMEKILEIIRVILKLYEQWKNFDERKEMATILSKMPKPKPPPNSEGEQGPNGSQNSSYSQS

NC(=O)c1cc(-c2ccncc2Br)c[nH]1
IC50 [1]: 37 nM

Cc1c(-c2ccncc2)c[nH]c1C(N)=O
IC50 [2]: 800 nM
IC50 [1]: 8 nM
inhibition [3]: < 20%
inhibition [4]: < 20%
inhibition [5]: < 20%
inhibition [6]: < 20%
inhibition [7]: < 20%
inhibition [8]: < 20%
inhibition [9]: < 20%
inhibition [10]: < 20%
inhibition [11]: < 20%
inhibition [12]: < 20%
inhibition [13]: < 20%
inhibition [14]: < 20%
inhibition [15]: < 20%
inhibition [16]: < 20%
inhibition [17]: < 20%
inhibition [18]: < 20%
inhibition [19]: < 20%
inhibition [20]: < 20%
inhibition [21]: < 20%
inhibition [22]: < 20%
inhibition [23]: < 20%
inhibition [24]: < 20%
inhibition [25]: < 20%
inhibition [26]: < 20%
inhibition [27]: < 20%
inhibition [28]: < 20%
inhibition [29]: < 20%
inhibition [30]: < 20%
inhibition [31]: < 20%
inhibition [32]: < 20%
inhibition [33]: < 20%
inhibition [34]: < 20%
inhibition [35]: < 20%
inhibition [36]: < 20%
inhibition [37]: < 20%
inhibition [38]: < 20%
inhibition [39]: < 20%
inhibition [40]: < 20%
inhibition [41]: < 20%
inhibition [42]: < 20%
inhibition [43]: < 20%
inhibition [44]: < 20%
inhibition [45]: < 20%

NC(=O)c1cc(-c2ccnc(Cl)c2)c[nH]1
IC50 [1]: 350 nM

Cc1cc(-c2c[nH]c(C(N)=O)c2C)ccn1
IC50 [1]: 19 nM

Cc1[nH]c(C(N)=O)cc1-c1ccncc1
IC50 [1]: 240 nM

NC(=O)c1cc(-c2ccncc2)c[nH]1
IC50 [1]: 170 nM

NC(=O)c1cc(-c2ccncc2)c(Cl)[nH]1
IC50 [1]: 160 nM

N#Cc1cc(-c2ccncc2)c[nH]1
IC50 [1]: 280 nM

NC(=O)c1[nH]cc(-c2ccncc2)c1Cl
IC50 [2]: 370 nM
IC50 [1]: 5 nM

NC(=O)c1cc(-c2ccncc2Cl)c[nH]1
IC50 [1]: 19 nM

NC(=O)c1[nH]cc(-c2ccncc2)c1C(F)(F)F
IC50 [2]: 270 nM
IC50 [1]: 3 nM
clearance [46]: 8.87 mL/min/kg
Cmax [47]: 9940 ng/mL
Cmax [48]: 12700 ng/mL
Tmax [49]: 15 min
half-life [50]: 50.4 min
half-life [51]: 475 min
Vd [52]: 0.49 L/kg
bioavailability [53]: 57.5%

Cc1cnccc1-c1c[nH]c(C(N)=O)c1
IC50 [1]: 87 nM

Cc1cnccc1-c1c[nH]c(C(N)=O)c1C
IC50 [2]: 1170 nM
IC50 [1]: 10 nM

CCc1cnccc1-c1c[nH]c(C#N)c1
IC50 [1]: 4630 nM

CNC(=O)c1cc(-c2ccncc2)c[nH]1
IC50 [1]: 410 nM

Cc1cc(-c2c[nH]c(C(N)=O)c2)ccn1
IC50 [1]: 480 nM

Cn1cc(-c2ccncc2)cc1C(N)=O
IC50 [1]: 4950 nM

CCc1c(-c2ccncc2)c[nH]c1C(N)=O
IC50 [2]: 1120 nM
IC50 [1]: 13 nM

NC(=O)c1cc(-c2ccncc2)cn1Cc1ccccc1
IC50 [1]: 170 nM
